As a reminder, the IC50 is the midpoint of a concentration-inhibition curve.

Consider 2 compounds from ChEMBL document CHEMBL4364304, “Discovery, synthesis, and in vitro evaluation of a novel bioactive peptide for ACE and DPP-IV inhibitory activity” (Eur J Med Chem, 2019).

Experiment [1] addresses T1, Angiotensin-converting enzyme (Sus scrofa) (UniProt F1RRW5).
T1 sequence (whole entry): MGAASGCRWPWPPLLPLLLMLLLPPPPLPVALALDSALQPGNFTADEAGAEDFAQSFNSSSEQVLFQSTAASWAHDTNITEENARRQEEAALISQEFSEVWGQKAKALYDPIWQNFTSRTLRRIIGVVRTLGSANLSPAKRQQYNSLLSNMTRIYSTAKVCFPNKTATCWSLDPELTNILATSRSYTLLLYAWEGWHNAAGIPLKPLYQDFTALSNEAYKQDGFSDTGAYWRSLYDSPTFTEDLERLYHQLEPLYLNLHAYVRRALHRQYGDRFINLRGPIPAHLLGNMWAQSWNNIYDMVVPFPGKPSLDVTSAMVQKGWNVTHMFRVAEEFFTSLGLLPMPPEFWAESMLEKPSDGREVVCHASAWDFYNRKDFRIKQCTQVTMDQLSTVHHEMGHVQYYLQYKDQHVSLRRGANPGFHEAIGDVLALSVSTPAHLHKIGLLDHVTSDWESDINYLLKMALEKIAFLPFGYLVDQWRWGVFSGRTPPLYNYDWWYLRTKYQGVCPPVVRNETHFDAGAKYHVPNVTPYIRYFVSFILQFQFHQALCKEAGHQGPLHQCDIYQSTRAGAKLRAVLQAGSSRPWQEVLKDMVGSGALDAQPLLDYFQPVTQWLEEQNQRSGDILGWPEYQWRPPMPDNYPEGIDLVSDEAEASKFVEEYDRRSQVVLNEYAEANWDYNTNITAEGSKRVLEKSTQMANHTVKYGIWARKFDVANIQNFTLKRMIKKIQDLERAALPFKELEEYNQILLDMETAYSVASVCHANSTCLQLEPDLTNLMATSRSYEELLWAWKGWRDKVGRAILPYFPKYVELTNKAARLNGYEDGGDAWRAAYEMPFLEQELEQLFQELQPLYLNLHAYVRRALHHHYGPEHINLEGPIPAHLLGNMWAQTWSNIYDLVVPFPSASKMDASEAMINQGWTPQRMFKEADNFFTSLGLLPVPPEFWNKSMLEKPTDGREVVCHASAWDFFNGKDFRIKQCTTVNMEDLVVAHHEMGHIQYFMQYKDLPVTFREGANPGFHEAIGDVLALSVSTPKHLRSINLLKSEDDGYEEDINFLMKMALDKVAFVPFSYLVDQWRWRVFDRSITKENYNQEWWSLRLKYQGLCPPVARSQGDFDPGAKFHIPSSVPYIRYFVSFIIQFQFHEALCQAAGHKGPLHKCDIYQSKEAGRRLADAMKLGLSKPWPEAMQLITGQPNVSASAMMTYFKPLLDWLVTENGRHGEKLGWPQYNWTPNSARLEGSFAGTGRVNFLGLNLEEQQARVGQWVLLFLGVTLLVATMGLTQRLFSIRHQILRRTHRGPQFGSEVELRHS
Description: (§1) Inhibition of porcine angiotensin converting enzyme assessed as release of hippuric acid using hippuryl-histidyl-leucine as substrate measured after 30 mins by spectrophotometry analysis.

For experiment [2], the target named is T2, Angiotensin-converting enzyme (Sus scrofa, UniProt F1RRW5).
T2 sequence (F1RRW5 whole entry): T1 sequence (whole entry)
Described as §1.

A further experiment deals with Dipeptidyl peptidase 4 (Homo sapiens, UniProt P27487). Nature of the experiment: Inhibition of recombinant human DPP4 using H-Gly-Pro conjugated amino methyl coumarin as substrate by fluorometric assay.
Dipeptidyl peptidase 4, sequence (P27487 whole entry): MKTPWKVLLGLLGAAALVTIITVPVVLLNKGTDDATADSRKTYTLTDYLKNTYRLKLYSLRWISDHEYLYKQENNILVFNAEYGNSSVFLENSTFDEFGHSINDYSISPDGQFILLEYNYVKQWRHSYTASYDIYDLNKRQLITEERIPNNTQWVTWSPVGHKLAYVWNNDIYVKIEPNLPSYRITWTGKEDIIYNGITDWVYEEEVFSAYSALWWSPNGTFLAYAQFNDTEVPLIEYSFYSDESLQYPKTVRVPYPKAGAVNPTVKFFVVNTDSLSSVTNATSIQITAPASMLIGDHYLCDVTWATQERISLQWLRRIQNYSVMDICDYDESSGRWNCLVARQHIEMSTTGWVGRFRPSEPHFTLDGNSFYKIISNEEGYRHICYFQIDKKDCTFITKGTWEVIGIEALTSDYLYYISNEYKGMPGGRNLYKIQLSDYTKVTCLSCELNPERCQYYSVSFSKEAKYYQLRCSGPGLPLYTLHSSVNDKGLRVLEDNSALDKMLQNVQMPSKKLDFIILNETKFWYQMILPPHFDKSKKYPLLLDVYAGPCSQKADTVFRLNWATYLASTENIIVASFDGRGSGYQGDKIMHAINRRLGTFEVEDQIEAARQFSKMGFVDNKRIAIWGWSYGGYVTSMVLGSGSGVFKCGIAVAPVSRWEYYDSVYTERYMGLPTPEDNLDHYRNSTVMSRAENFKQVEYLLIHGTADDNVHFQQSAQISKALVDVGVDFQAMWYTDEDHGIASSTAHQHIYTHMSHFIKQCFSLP

Residues, ends and D or L forms follow the SMILES beside them.

Consider `CC[C@H](C)[C@H](NC(=O)[C@H](CC(C)C)NC(=O)[C@@H]1CCCN1C(=O)[C@H](CC(C)C)NC(=O)[C@@H]1CCCN1C(=O)[C@@H](NC(=O)CN)[C@@H](C)CC)C(=O)O` (H-GIPLPLI-OH), for which the inhibition result in experiment [1] is “Dose-dependent effect”. Further, the IC50 is 74.3 µM in experiment [2] and 3.83 mM at Dipeptidyl peptidase 4.
Regarding `CC[C@H](C)[C@H](N)C(=O)N[C@@H](CCC(N)=O)C(=O)N[C@@H](CCCCN)C(=O)N[C@H](C(=O)N[C@@H](C)C(=O)NCC(=O)N[C@H](C(=O)N[C@@H](Cc1c[nH]c2ccccc12)C(=O)O)[C@@H](C)O)C(C)C` (H-IQKVAGTW-OH), the IC50 in experiment [2] was 300 µM.
